Source: patent publication US10597388B2, “Pyridazinone herbicides” (FMC CORPORATION, priority 2014, dated 2020)

Legend:
Type in all cases: in vivo
[1] = test system: soybean (Glycine max); assay: Test C greenhouse herbicide test, pre- and postemergence
Procedure, shortened: (§1)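 Preemergence: seeds sown in a loam soil–sand blend and sprayed with test chemicals in a non-phytotoxic solvent mixture containing surfactant. Postemergence: plants grown in peat-based medium and treated at 2 to 18 cm (1- to 4-leaf stage). After 13 to 15 d in a greenhouse, injury was visually rated 0–100 against controls.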

[2] = test system: foxtail, giant (giant foxtail, Setaria faberii); assay: as above
Procedure, shortened: as §1

[3] = test system: blackgrass (Alopecurus myosuroides); assay: as above
Procedure, shortened: as §1

[4] = test system: wheat (winter wheat, Triticum aestivum); assay: as above
Procedure, shortened: as §1

[5] = test system: pigweed (Amaranthus retroflexus); assay: as above
Procedure, shortened: as §1

[6] = test system: crabgrass, large (large crabgrass, Digitaria sanguinalis); assay: as above
Procedure, shortened: as §1

[7] = test system: corn (Zea mays); assay: as above
Procedure, shortened: as §1

[8] = test system: waterhemp (common waterhemp, Amaranthus rudis); assay: as above
Procedure, shortened: as §1

[9] = test system: barnyardgrass (Echinochloa crus-galli); assay: as above
Procedure, shortened: as §1

[10] = test system: johnsongrass (Sorghum halepense); assay: as above
Procedure, shortened: as §1

[11] = test system: ragweed (common ragweed, Ambrosia elatior); assay: as above
Procedure, shortened: as §1

[12] = test system: lambsquarters (Chenopodium album); assay: as above
Procedure, shortened: as §1

[13] = test system: morningglory (Ipomoea coccinea); assay: as above
Procedure, shortened: as §1

[14] = test system: ryegrass, Italian (Italian ryegrass, Lolium multiflorum); assay: as above
Procedure, shortened: as §1

[15] = test system: kochia (Kochia scoparia); assay: Test C greenhouse herbicide test, postemergence; details: Postemergence
Procedure, shortened: (§2)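 Visual injury scores (0–100, where 100 means complete control) were assigned 13 to 15 d after postemergence application, by comparison with untreated plants. Treated seedlings stood 2 to 18 cm tall, at the 1- to 4-leaf stage.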

[16] = test system: oat, wild (wild oat, Avena fatua); assay: Test C greenhouse herbicide test, postemergence; details: Postemergence
Procedure, shortened: as §2

[17] = Postemergence, 31 g ai/ha, scale 0 to 100 (0 no effect, 100 complete control)
[18] = Postemergence, 125 g ai/ha, scale 0 to 100, 0 is no effect, 100 is complete control
[19] = Postemergence, 250 g ai/ha, scale 0 to 100, 0 no effect, 100 complete control, 13 to 15 d
[20] = Preemergence, 31 g ai/ha, scale 0 to 100, 0 is no effect, 100 is complete control
[21] = Preemergence, 62 g ai/ha, scale 0 to 100, 0 is no effect, 100 is complete control
[22] = Preemergence, 125 g ai/ha, scale 0 to 100, 0 is no effect, 100 is complete control
[23] = Preemergence, 250 g ai/ha, scale 0 to 100 (0 no effect, 100 complete control)
[24] = postemergence, 62 g ai/ha, scale 0 to 100, 0 no effect, 100 complete control
[25] = 31 g ai/ha, scale 0 to 100 (0 no effect, 100 complete control)
[26] = 125 g ai/ha, scale 0 to 100, 0 is no effect, 100 is complete control
[27] = 250 g ai/ha, scale 0 to 100, 0 no effect, 100 complete control, 13 to 15 d

SMILES: Cc1ccc2ccccc2c1-c1c(O)c(Cl)nn(C)c1=O [Compound 125]
- Plant response rating, Soybean [1, 17]: 0
- Plant response rating, Soybean [1, 18]: 10
- Plant response rating, Soybean [1, 19]: 10
- Plant response rating, Soybean [1, 20]: 0
- Plant response rating, Soybean [1, 21]: 5
- Plant response rating, Soybean [1, 22]: 30
- Soybean plant response rating [1, 23]: 35
- Plant response rating, Foxtail, Giant [2, 17]: 70
- Plant response rating, Foxtail, Giant [2, 18]: 95
- Plant response rating, Foxtail, Giant [2, 19]: 98
- Plant response rating, Foxtail, Giant [2, 20]: 95
- Plant response rating, Foxtail, Giant [2, 21]: 100
- Plant response rating, Foxtail, Giant [2, 22]: 98
- Foxtail, Giant plant response rating [2, 23]: 100
- Plant response rating, Blackgrass [3, 17]: 20
- Plant response rating, Blackgrass [3, 18]: 60
- Plant response rating, Blackgrass [3, 19]: 80
- Plant response rating, Blackgrass [3, 20]: 50
- Plant response rating, Blackgrass [3, 21]: 55
- Plant response rating, Blackgrass [3, 22]: 55
- Blackgrass plant response rating [3, 23]: 90
- Blackgrass plant response rating [3, 24]: 45
- Plant response rating, Wheat [4, 17]: 0
- Plant response rating, Wheat [4, 18]: 30
- Plant response rating, Wheat [4, 19]: 35
- Plant response rating, Wheat [4, 20]: 40
- Plant response rating, Wheat [4, 21]: 45
- Plant response rating, Wheat [4, 22]: 90
- Wheat plant response rating [4, 23]: 90
- Plant response rating, Pigweed [5, 17]: 95
- Plant response rating, Pigweed [5, 18]: 98
- Plant response rating, Pigweed [5, 19]: 98
- Plant response rating, Pigweed [5, 20]: 100
- Plant response rating, Pigweed [5, 21]: 100
- Plant response rating, Pigweed [5, 22]: 100
- Pigweed plant response rating [5, 23]: 100
- Plant response rating, Crabgrass, Large [6, 17]: 25
- Plant response rating, Crabgrass, Large [6, 18]: 40
- Plant response rating, Crabgrass, Large [6, 19]: 60
- Plant response rating, Crabgrass, Large [6, 20]: 40
- Plant response rating, Crabgrass, Large [6, 21]: 45
- Plant response rating, Crabgrass, Large [6, 22]: 75
- Crabgrass, Large plant response rating [6, 23]: 98
- Crabgrass, Large plant response rating [6, 24]: 35
- Plant response rating, Corn [7, 17]: 5
- Plant response rating, Corn [7, 18]: 5
- Plant response rating, Corn [7, 19]: 5
- Plant response rating, Corn [7, 20]: 0
- Plant response rating, Corn [7, 21]: 0
- Plant response rating, Corn [7, 22]: 20
- Corn plant response rating [7, 23]: 55
- Corn plant response rating [7, 24]: 0
- Plant response rating, Waterhemp [8, 17]: 85
- Plant response rating, Waterhemp [8, 18]: 98
- Plant response rating, Waterhemp [8, 19]: 100
- Plant response rating, Waterhemp [8, 20]: 98
- Plant response rating, Waterhemp [8, 21]: 100
- Plant response rating, Waterhemp [8, 22]: 100
- Waterhemp plant response rating [8, 23]: 100
- Plant response rating, Barnyardgrass [9, 17]: 35
- Plant response rating, Barnyardgrass [9, 18]: 80
- Plant response rating, Barnyardgrass [9, 19]: 70
- Plant response rating, Barnyardgrass [9, 20]: 55
- Plant response rating, Barnyardgrass [9, 21]: 70
- Plant response rating, Barnyardgrass [9, 22]: 90
- Barnyardgrass plant response rating [9, 23]: 98
- Barnyardgrass plant response rating [9, 24]: 40
- Plant response rating, Johnsongrass [10, 17]: 5
- Plant response rating, Johnsongrass [10, 18]: 20
- Plant response rating, Johnsongrass [10, 19]: 20
- Plant response rating, Johnsongrass [10, 20]: 40
- Plant response rating, Johnsongrass [10, 21]: 55
- Plant response rating, Johnsongrass [10, 22]: 60
- Johnsongrass plant response rating [10, 23]: 70
- Plant response rating, Ragweed [11, 17]: 95
- Plant response rating, Ragweed [11, 18]: 98
- Plant response rating, Ragweed [11, 19]: 98
- Plant response rating, Ragweed [11, 20]: 95
- Plant response rating, Ragweed [11, 21]: 100
- Plant response rating, Ragweed [11, 22]: 98
- Ragweed plant response rating [11, 23]: 100
- Plant response rating, Lambsquarters [12, 17]: 90
- Plant response rating, Lambsquarters [12, 18]: 98
- Plant response rating, Lambsquarters [12, 19]: 100
- Plant response rating, Lambsquarters [12, 20]: 90
- Plant response rating, Lambsquarters [12, 21]: 100
- Plant response rating, Lambsquarters [12, 22]: 100
- Lambsquarters plant response rating [12, 23]: 100
- Plant response rating, Morningglory [13, 17]: 95
- Plant response rating, Morningglory [13, 18]: 100
- Plant response rating, Morningglory [13, 19]: 100
- Plant response rating, Morningglory [13, 20]: 90
- Plant response rating, Morningglory [13, 21]: 95
- Plant response rating, Morningglory [13, 22]: 95
- Morningglory plant response rating [13, 23]: 98
- Plant response rating, Ryegrass, Italian [14, 17]: 85
- Plant response rating, Ryegrass, Italian [14, 18]: 95
- Plant response rating, Ryegrass, Italian [14, 19]: 95
- Plant response rating, Ryegrass, Italian [14, 20]: 85
- Plant response rating, Ryegrass, Italian [14, 21]: 95
- Plant response rating, Ryegrass, Italian [14, 22]: 95
- Ryegrass, Italian plant response rating [14, 23]: 95
- Plant response rating, Kochia [15, 25]: 85
- Plant response rating, Kochia [15, 26]: 90
- Plant response rating, Kochia [15, 27]: 90
- Plant response rating, Oat, Wild [16, 25]: 85
- Plant response rating, Oat, Wild [16, 26]: 95
- Plant response rating, Oat, Wild [16, 27]: 95
